Assay results published in ChEMBL document CHEMBL1158831, “Meroditerpenoids from a Formosan soft coral Nephthea chabrolii” (J Nat Prod, 2005).

Tests used:
Assay type in all cases: functional, cell-based
HepG2 = experiment: Cytotoxicity against human HepG2 cells after 6 days by MTT method; conditions: HepG2, 144 h
A549 = experiment: Cytotoxicity against human A549 cells after 6 days by MTT method; conditions: A549, 144 h
MDA-MB-231 = experiment: Cytotoxicity against human MDA-MB-231cells after 6 days by MTT method; conditions: MDA-MB-231, 144 h

Structure (SMILES)	IC50 (HepG2) [µM]	IC50 (A549) [µM]	IC50 (MDA-MB-231) [µM]
CC(C)=CCC/C(=C/CC/C(C)=C/CC/C(C)=C/CC1=CC(=O)C(C)=CC1=O)CO [CHABROLOBENZOQUINONE E]	> 48.8	> 48.8	> 48.8
CC(=O)O[C@H](CC/C(C)=C/CC[C@](C)(O)/C=C\c1cc(O)c(C)cc1O)[C@@](C)(O)CCC=C(C)C [CHABROLOHYDROXYBENZOQUINONE G]	18.4	26.8	18
CC(C)=CCC/C(C)=C/CC/C(C)=C/CC[C@](C)(O)/C=C\c1cc(O)c(C)cc1O [CHABROLOHYDROXYBENZOQUINONE E]	> 48.5	> 48.5	> 48.5
CC(=O)OC/C(=C\CC/C(C)=C/CC/C(C)=C/CC1=CC(=O)C(C)=CC1=O)CCC=C(C)C [CHABROLOBENZOQUINONE F]	38.1	38.1	33.2
CC(C)=CCC/C(C)=C/[C@@H](O)C/C(C)=C/CC[C@](C)(O)/C=C\c1cc(O)c(C)cc1O [CHABROLOHYDROXYBENZOQUINONE F]	44.4	42.3	> 46.7
CC(=O)O[C@H](CC/C(C)=C/CCc1ccc2c(c1)C(=O)C(C)=CC2=O)[C@@](C)(O)CCC=C(C)C [CHABROLONAPHTHOQUINONE B]	12.4	33.9	4.7
COc1cccc2c1C(=O)c1c(O)c3c(c(O)c1C2=O)C[C@@](O)(C(=O)CO)C[C@@H]3O[C@H]1C[C@H](N)[C@H](O)[C@H](C)O1 [DOXORUBICIN]	0.17	0.17	0.07
CC(=O)O[C@H](CC/C(C)=C/CC/C(C)=C/CC1=CC(=O)C(C)=CC1=O)[C@@](C)(O)CCC=C(C)C [CHABROLOBENZOQUINONE H]	> 42.5	38	31.4
